Each structure is given as a SMILES string. Some results are limits rather than exact numbers.

The target in the experiment is T1, SIRT1 (Homo sapiens, UniProt Q96EB6).
T1 construct: His-tag (N); made in house; host or cells: E. coli BL21(DE3), T7-promoter vector
T1 sequence (Q96EB6 1-747): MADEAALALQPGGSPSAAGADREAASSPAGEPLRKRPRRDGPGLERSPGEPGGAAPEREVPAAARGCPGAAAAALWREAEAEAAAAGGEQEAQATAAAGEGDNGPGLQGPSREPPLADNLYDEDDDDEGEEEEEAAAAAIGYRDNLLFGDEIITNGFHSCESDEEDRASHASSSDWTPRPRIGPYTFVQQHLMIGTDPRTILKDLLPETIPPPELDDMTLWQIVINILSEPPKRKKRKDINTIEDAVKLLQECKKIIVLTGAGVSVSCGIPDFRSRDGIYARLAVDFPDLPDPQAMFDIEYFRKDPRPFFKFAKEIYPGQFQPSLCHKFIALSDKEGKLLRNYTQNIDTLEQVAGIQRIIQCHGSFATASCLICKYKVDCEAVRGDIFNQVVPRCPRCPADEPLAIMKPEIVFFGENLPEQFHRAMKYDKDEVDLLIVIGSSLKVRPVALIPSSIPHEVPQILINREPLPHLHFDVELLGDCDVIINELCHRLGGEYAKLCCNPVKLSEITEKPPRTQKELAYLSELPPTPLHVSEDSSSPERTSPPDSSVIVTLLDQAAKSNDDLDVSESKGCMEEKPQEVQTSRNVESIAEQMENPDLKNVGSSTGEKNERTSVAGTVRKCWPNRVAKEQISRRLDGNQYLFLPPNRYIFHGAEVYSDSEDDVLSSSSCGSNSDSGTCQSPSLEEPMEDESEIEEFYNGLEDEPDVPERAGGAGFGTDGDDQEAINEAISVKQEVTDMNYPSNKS
In words: Mass spectrometry based assay for modulators of SIRT1 activity (deacetylation of p53-based acetylated peptide). The conditions noted are these: for EC1.5: concentration of test compound that results in 150% activation of SIRT1, 0.5 μM peptide substrate, 120 μM βNAD+, 10 nM SIRT1, 25 min, 25° C.; for Emax: percent maximum fold activation of SIRT1. The class given is biochemical. The essentials:
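Reaction: 10 nM His-tagged human SIRT1 (E. coli-expressed) with 0.5 μM 5TMR-labelled acetylated p53-derived peptide and 120 μM NAD+, 25 min at 25 °C, pH 8 Tris-acetate buffer; formic acid quench. Deacetylation quantified by mass spectrometry against a DMSO control; EC1.5 = concentration giving 150% activation.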

The term Emax denotes the size of the effect at its maximum, as opposed to the concentration needed. As to `O=C(Nc1nccs1)c1cccn2cc(-c3ccc(CN4CCOCC4)cc3)nc12` [Compound 262, 2-(4-(morpholinomethyl)phenyl)-N-(thiazol-2-yl)imidazo[1,2-a]pyridine-8-carboxamide], the EC1.5 result was “B (EC1.5 1-25 uM)” and the maximal effect (Emax) is greater than 200%.

As to `O=C(Nc1nccs1)c1cccn2nc(-c3ccc(F)cc3C(F)F)nc12` [Compound 263], the EC1.5 entry is reported as “C (EC1.5>25 uM)” and the Emax was less than 200%.

For `O=C(Nc1nccs1)c1cccn2nc(-c3ccc(OCCN4CCOCC4)cc3C(F)F)nc12` [Compound 265, 2-(2-(difluoromethyl)-4-(2-morpholinoethoxy)phenyl)-N-(thiazol-2-yl)-[1,2,4]triazolo[1,5-a]pyridine-8-carboxamide], the EC1.5 result is “B (EC1.5 1-25 uM)” and the Emax is less than 200%.
